This is an account of results in patent US20070088043A1, “Novel HDAC inhibitors” (ORCHID RESEARCH LABORATORIES LIMITED., priority 2005, published 2007).

The term GI50 denotes the concentration giving 50% growth inhibition. A high value points to less potent growth inhibition. By LC50 is commonly meant the concentration lethal to half of the exposed cells or organisms. Broadly, the IC50 is the midpoint of a concentration-inhibition curve. A lower IC50 goes with greater potency.

The test system of one assay is NCIH 460 cells. In words: Anti-cancer screen (MTT), NCIH460. The format is cell-based. The note with it: Homo sapiens, NCI-H460, NCIH460 cells, 48 hours, MTT; for GI50: concentration to decrease % growth by 50%; for IC100: concentration to decrease % growth by 100%, read-out: NCIH460 TGI; for LC50: concentration to decrease % growth by 150%. The procedure: (§1) Experimental drugs are screened for anti-cancer activity in three cell lines for their GI50, TGI and LC50 values (using five concentrations for each compound). The cell lines are maintained in DMEM containing 10% fetal bovine serum. 96 well micro titer plates are inoculated with cells in 100 μL for 24 h at 37° C., 5% CO2, 95% air and 100% relative humidity. 5000 HCT 116 cells/well, 5000 NCIH 460 cells/well and 5000 U251 cells/well are plated. A separate plate with these cell lines is also inoculated to determine cell viability before the addition of the compounds (T0).
(§2) Following 24-hour incubation, experimental drugs are added to the 96 well plates. Each plate contains one of the above cell lines and the following in triplicate: five different concentrations (0.01, 0.1, 1, 10 and 100 μM) of four different compounds, appropriate dilutions of a cytotoxic standard and control (untreated) wells. Compounds are dissolved in DMSO to make 20 mM stock solutions on the day of drug addition and frozen at −20° C. Serial dilutions of these 20 mM stock solutions are made in complete growth medium such that 100 μL of these drug solutions in medium, of final concentrations equaling 0.01, 0.1, 1, 10 and 100 μM can be added to the cells in triplicate. Standard drugs whose anti-cancer activity has been well documented and which are regularly used are doxorubicin and SAHA.
(§3) For To measurement, 24 hours after seeding the cells, 10 μL of 3-(4,5-Dimethyl-2-thiazolyl)-2,5-diphenyl-2H-tetrazolium (MTT) solution per well is added and incubation carried out for 3 hours at 37° C., 5% CO2, 95% air and 100% relative humidity, protected from light. Cells incubated with compounds for 48 hours are treated similarly except with the addition of 20 μL MTT solution per well and a subsequent incubation under the same conditions. After 3 hours of MTT incubation, well contents are aspirated carefully followed by addition of 150 μL DMSO per well. Plates are agitated to ensure solution of the formazan crystals in DMSO and absorbance read at 570 nm. […]

Another assay has as its system HCT 116 cells. In words: Anti-cancer screen (MTT), HCT116. The note with it: Homo sapiens, HCT-116, HCT116 cells, 48 hours, MTT; for GI50: concentration to decrease % growth by 50%; for IC100: concentration to decrease % growth by 100%, read-out: HCT116 TGI; for LC50: concentration to decrease % growth by 150%. The class given is cell-based. The procedure: as §1, §2, §3

In the next assay the test system is MDAMB231/U251. In words: Anti-cancer screen (MTT), MDAMB231/U251. The class given is cell-based. The note with it: MDAMB231/U251 cells, 48 hours; for GI50: concentration to decrease % growth by 50%; for IC100: concentration to decrease % growth by 100%, read-out: MDAMB231/U251 TGI; for LC50: concentration to decrease % growth by 150%. On the procedure:
as §1, §2, §3

Assay [1] deals with NCIH460, HCT116, MDAMB231/U251. Put plainly: Anti-cancer screen, mean GI50 over the cell lines. The format is cell-based. As to conditions: in µM. On the procedure:
as §1, §2, §3

Assay [2] relates to HDAC (Mouse Liver Extract). Put plainly: Histone Deacetylase (HDAC) Inhibition Assay using Boc-Lys (Ac)-AMC Substrate. The class given is biochemical. The note with it: mouse liver enzyme, NA = No Activity; for HDAC Inhibition 1 μM / HDAC Inhibition 10 μM: in % (unit assumed). From the text:
HDAC Activitv Screening: Histone Deacetylase (HDAC) Inhibition Assay using Boc-Lys (Ac)-AMC Substrate:
Inhibition of HDAC has been implicated to modulate transcription and to induce apoptosis or differentiation in cancer cells. The fluorometric assay provides a fast and fluorescence based method that eliminates radioactivity, extractions or chromatography, as used in traditional assays. The assay based on two steps. First, the HDAC fluorometric substrate, which comprises an acetylated lysine side chain, is incubated with a sample containing HDAC activity (Mouse Liver Extract). Deacetylation of the substrate sensitizes the substrate, in the second step; treatment with the Trypsin stop solution produces a fluorophore that can be easily analyzed using fluorescence plate reader.
Assay was done in 96 well black microplate and total volume of the assay is 100 ul. Mouse liver enzyme is diluted 1:6 with HDAC buffer. Enzyme cocktail made of 10 ul of diluted enzyme and 30 ul of HDAC buffer. 40 ul of enzyme cocktail dispensed into each well. 10 ul of different concentrations of inhibitor added in to each well, except enzyme control well. Preincubated the plate at 30° C. for 5 minutes. The HDAC reaction is started by adding 50 ul of HDAC substrate (Boc-Lys (Ac)-AMC Substrate) solution. Incubated the plate at 30° C. for 30 minutes. Adding 100 ul of Trypsin stop solution stops the reaction. The plate is incubated again at 30° C. for 20-30 minutes. The release of AMC is monitored by measuring the fluorescence at excitation wavelength of 365 or 360 nm and emission wavelength of 440 or 460 nm. Buffer and substrate alone kept for blank subtraction. (Dennis Wegener et al, Anal. Biochem, 321, 2003, 202-208).

In the case of `CC(=O)SCCCCC(=O)N1CCN(C(=O)CNc2nc3ccccc3s2)CC1` [Example 1, N-{2-[4-(5-thioacetylpentanoyl)piperazin-1-yl]-2-oxoethyl}-1,3-benzothiazol-2-amine], in the assay with NCIH 460 cells, the GI50 was over 100 µM, the IC100 was over 100 µM and the LC50 was over 100 µM. Besides, in the assay with HCT 116 cells, the concentration for 50% growth inhibition (GI50) was over 100 µM, the IC100 is over 100 µM and the 50% lethal concentration (LC50) was over 100 µM. For the same compound, in the assay on MDAMB231/U251, the GI50 came out at 80 µM, the IC100 was over 100 µM and the LC50 is over 100 µM. In assay [1], the “Mean GI50” value is listed as over 100. In addition, in assay [2], the “HDAC Inhibition 1 μM” value is reported as 10.48 and the “HDAC Inhibition 10 μM” value was determined as 38.59.
On to `CC(=O)SCCCCCC(=O)N1CCN(C(=O)CN2CCOCC2)CC1` [Example 2], for which, in the assay with NCIH 460 cells, the concentration for 50% growth inhibition (GI50) was over 100 µM, the IC100 was over 100 µM and the LC50 is over 100 µM. Besides, in the assay on HCT 116 cells, the GI50 is over 100 µM, the IC100 is over 100 µM and the median lethal concentration (LC50) was over 100 µM. In the assay on MDAMB231/U251, the 50% growth inhibitory concentration (GI50) was over 100 µM, the IC100 is over 100 µM and the LC50 is over 100 µM. Besides, in assay [1], the “Mean GI50” value is on record as over 100. Besides, in assay [2], the “HDAC Inhibition 1 μM” value came out at 8.31 and the “HDAC Inhibition 10 μM” value was 34.56.
As for `CC(=O)SCCCCCC(=O)N1CCN(C(=O)CNc2nc3ccc(C)cc3s2)CC1` [Example 3, N-{2-[4-(6-thioacetylhexanoyl)piperazin-1-yl]-2-oxoethyl}-6-methyl-1,3-benzo thiazol-2-amine], in the assay with NCIH 460 cells, the GI50 was over 100 µM, the IC100 is over 100 µM and the LC50 is over 100 µM. In addition, in the assay with HCT 116 cells, the GI50 worked out at 49 µM, the IC100 is 99 µM and the LC50 is over 100 µM. Moreover, in the assay with MDAMB231/U251, the 50% growth inhibitory concentration (GI50) was 48 µM, the IC100 is over 100 µM and the LC50 was over 100 µM. Also, the “Mean GI50” value in assay [1] is recorded as over 100. Besides, in assay [2], the “HDAC Inhibition 1 μM” value worked out at 42.40 and the “HDAC Inhibition 10 μM” value came to 86.74.
As for `CC(=O)SCCCCC(=O)N1CCN(CC(=O)Nc2nc(C)cs2)CC1` [Example 4, 2-[4-(5-Thioacetylpentanoyl)piperazin-1-yl]-N-(4-methyl-1,3-thiazol-2-yl)acetamide], in the assay with NCIH 460 cells, the GI50 stood at 9 µM, the IC100 was found to be 91 µM and the LC50 was over 100 µM. Also, in the assay on HCT 116 cells, it took 60 µM to inhibit growth by half (GI50), the IC100 is over 100 µM and the LC50 was over 100 µM. In the assay on MDAMB231/U251, halving of growth (GI50) required 45 µM, the IC100 was over 100 µM and the LC50 was over 100 µM. For the same compound, in assay [1], the “Mean GI50” value turned out to be 38. In assay [2], the “HDAC Inhibition 1 μM” value is 15.82 and the “HDAC Inhibition 10 μM” value was determined as 50.88.
As to `CC(=O)SCCCCCC(=O)N1CCN(CC(=O)Nc2nc3ccccc3s2)CC1` [Example 6, 2-[4-(6-Thioacetylhexanoyl)piperazin-1-yl]-N-(1,3-benzothiazol-2-yl)acetamide], in the assay on NCIH 460 cells, the concentration for 50% growth inhibition (GI50) worked out at 0.8 µM, the IC100 is 53 µM and the LC50 is over 100 µM. Besides, in the assay on HCT 116 cells, the GI50 was found to be 4.5 µM, the IC100 was 42 µM and the LC50 was over 100 µM. Further, in the assay on MDAMB231/U251, the 50% growth inhibitory concentration (GI50) was 0.01 µM, the IC100 worked out at 0.4 µM and the LC50 was over 100 µM. Also, the “Mean GI50” value in assay [1] is 2.00. Further, in assay [2], the “HDAC Inhibition 1 μM” value worked out at 63.40, the “HDAC Inhibition 10 μM” value came out at 83.30 and the IC50 was 0.062 µM.
Regarding `CC(=O)SCCCCC(=O)N1CCN(CC(=O)Nc2nccs2)CC1` [Example 7, 2-[4-(5-Thioacetylpentanoyl)piperazin-1-yl]-N-(1,3-thiozole-2-yl)acetamide], in the assay on NCIH 460 cells, the GI50 worked out at 50 µM, the IC100 came out at 88 µM and the median lethal concentration (LC50) was over 100 µM. In the assay with HCT 116 cells, the GI50 amounted to 85 µM, the IC100 is over 100 µM and the LC50 was over 100 µM. Besides, in the assay with MDAMB231/U251, the GI50 is over 100 µM, the IC100 was over 100 µM and the LC50 was over 100 µM. The “Mean GI50” value in assay [1] was 67.50. Moreover, in assay [2], the “HDAC Inhibition 1 μM” value worked out at 27.76 and the “HDAC Inhibition 10 μM” value is listed as 45.96.
With `CC(=O)SCCCCC(=O)N1CCN(CC(=O)Nc2nc3ccccc3s2)CC1` [Example 8, 2-[4-(5-Thioacetylpentanoyl)piperazin-1-yl]-N-(1,3-benzothiazol-2-yl)acetamide], in the assay on NCIH 460 cells, the GI50 came out at 18 µM, the IC100 is over 100 µM and the LC50 was over 100 µM. In the assay with HCT 116 cells, halving of growth (GI50) required 7 µM, the IC100 is 80 µM and the LC50 was over 100 µM. Also, in the assay on MDAMB231/U251, the GI50 is over 100 µM, the IC100 was over 100 µM and the LC50 was over 100 µM. In assay [1], the “Mean GI50” value was 12.50. Besides, in assay [2], the “HDAC Inhibition 1 μM” value was found to be 31.41 and the “HDAC Inhibition 10 μM” value was 69.85.
Take `Cc1cccc2sc(NC(=O)CN3CCN(C(=O)CCCCCNO)CC3)nc12` [Example 27]: in the assay on NCIH 460 cells, the GI50 came to 8 µM, the IC100 is over 100 µM and the 50% lethal concentration (LC50) was over 100 µM. In addition, in the assay on HCT 116 cells, the GI50 was 8 µM, the IC100 is over 100 µM and the LC50 was over 100 µM. For the same compound, in the assay on MDAMB231/U251, the GI50 came to 28 µM, the IC100 was found to be 80 µM and the LC50 was over 100 µM. Further, the “Mean GI50” value in assay [1] is 14.70.
With `COc1cccc2sc(NC(=O)CN3CCN(C(=O)CCCCCN(OCc4ccccc4)C(C)=O)CC3)nc12` [Example 28, N-4-methoxy-1,3-benzothiazol-2-yl-2-{6-[6 (N-acetyl-O-benzyl)hexanoyl]piperazin-1-yl}acetamide], in the assay with NCIH 460 cells, the GI50 was 21 µM, the IC100 is over 100 µM and the LC50 was over 100 µM. In the assay with HCT 116 cells, the GI50 came to 5.5 µM, the IC100 was determined as 58 µM and the LC50 is over 100 µM. In the assay with MDAMB231/U251, it took 0.08 µM to inhibit growth by half (GI50), the IC100 amounted to 9 µM and the 50% lethal concentration (LC50) is over 100 µM. Besides, in assay [1], the “Mean GI50” value came to 8.86.
Consider `CSCC[C@@H](N)C(=O)NCCCCCC(=O)N1CCN(CC(=O)Nc2nc3ccccc3s2)CC1` [Example 42], for which, in the assay with NCIH 460 cells, the GI50 was 56 µM, the IC100 was over 100 µM and the LC50 is over 100 µM. For the same compound, in the assay with HCT 116 cells, the GI50 came to 26 µM, the IC100 came out at 78 µM and the median lethal concentration (LC50) is over 100 µM. Moreover, in the assay on MDAMB231/U251, the concentration for 50% growth inhibition (GI50) came to 99.5 µM, the IC100 is over 100 µM and the LC50 was over 100 µM. Also, the “Mean GI50” value in assay [1] amounted to 61.
